Results published in patent US10278969B2, “Pharmaceutical dosage forms” (Novartis AG, priority 2013, dated 2019).

Experiment: Chemical stability: hydrolysis degradation of the Compound on processing
Type: physicochemical
Settings: urea bond cleavage into aniline and aminopyrimidine degradants
Description: In view of the above mentioned difficulties, the inventors tried to compact the voluminous Compound together with excipients without the use of aqueous media. […] There could be various root causes for the degradation problem. The inventor had run numerous experimental trials to identify the cause.

Chemical stability (hydrolysis degradation products): prone to hydrolysis
SMILES: CCN1CCN(c2ccc(Nc3cc(N(C)C(=O)Nc4c(Cl)c(OC)cc(OC)c4Cl)ncn3)cc2)CC1 [the Compound, 3-(2,6-Dichloro-3,5-dimethoxy-phenyl)-1-{6-[4-(4-ethyl-piperazin-1-yl)-phenylamino]-pyrimidin-4-yl}-1-methyl-urea]
